Test systems include SF-539 CNS; COLO 205 colon; NCI-H460 lung; NCI-H23 lung; A549 NSCLC; CAKI-1 renal; HL-60(TB) leukemia; BT-549 breast; ACHN renal; HOP-92 NSCLC.
Assay in all cases: DTP human tumour cell line panel, 48 h

Molecules are shown by their SMILES.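 How tested: cells in 96-well plates exposed to compound for 48 hours at five concentrations. Abbreviation: GI50, concentration required for 50% inhibition of growth. At the TGI there is no net growth.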

For `COc1cc2c(cc1OCCCN1CCN(CCCOc3cc4c(cc3OC)C(=O)N3CC(F)(F)C[C@H]3C=N4)CC1)N=C[C@@H]1CC(F)(F)CN1C2=O`, the GI50 with SF-539 CNS is 3.05 µM; with COLO 205 colon it was 3.09 µM; in the assay with NCI-H460 lung, 2.6 µM; in the assay on NCI-H23 lung it was 4.55 µM; in the assay with A549 NSCLC, 7.32 µM; in the assay on CAKI-1 renal it was 3.31 µM. Further, the GI50 in the assay with HL-60(TB) leukemia is 1.18 µM; with BT-549 breast, 1.95 µM; in the assay on ACHN renal it was 5.64 µM; in the assay with HOP-92 NSCLC it was 6.14 µM. For the same molecule, the TGI in the assay with SF-539 CNS turned out to be 9.15 µM; in the assay on COLO 205 colon it was 10.2 µM; with NCI-H460 lung, 15.6 µM; in the assay on NCI-H23 lung, 16.8 µM; in the assay on A549 NSCLC it was 43 µM; in the assay with CAKI-1 renal it was 13.5 µM. In addition, the TGI was found to be 5.06 µM with HL-60(TB) leukemia, 5.36 µM in the assay with BT-549 breast, 19.7 µM with ACHN renal and 76.3 µM in the assay with HOP-92 NSCLC.
As for `NNc1ncnc2nc[nH]c12`, the GI50 was 21.2 µM with SF-539 CNS; 2.56 µM in the assay on COLO 205 colon; 5.58 µM in the assay with NCI-H460 lung; 10.1 µM in the assay on NCI-H23 lung; 4.94 µM in the assay with A549 NSCLC; 0.793 µM in the assay with CAKI-1 renal. Further, the GI50 in the assay on HL-60(TB) leukemia is 3.53 µM; with BT-549 breast, 4.22 µM; in the assay on ACHN renal, 4.78 µM; in the assay on HOP-92 NSCLC, 4 µM. Moreover, the TGI in the assay with SF-539 CNS was > 100 µM; in the assay on COLO 205 colon, 18.7 µM; in the assay with NCI-H460 lung it was 51.6 µM; in the assay with NCI-H23 lung, > 100 µM; in the assay on A549 NSCLC it was > 38.6 µM; in the assay with CAKI-1 renal, 18.3 µM. For the same molecule, the total growth inhibition concentration (TGI) with HL-60(TB) leukemia is 21.5 µM; with BT-549 breast, > 94.3 µM; in the assay with ACHN renal, > 94 µM; in the assay on HOP-92 NSCLC, 55.4 µM.
Regarding `CCCCCCCCSC1=C(Cl)C(=O)C(OC)=C(OC)C1=O`, the TGI in the assay on SF-539 CNS was 32.7 µM; in the assay on COLO 205 colon, 38 µM; with NCI-H460 lung, 69.5 µM; in the assay on NCI-H23 lung it was 31.5 µM; in the assay with A549 NSCLC, 48.4 µM; with CAKI-1 renal it was 34.7 µM. The TGI in the assay on HL-60(TB) leukemia was determined as 16.8 µM; in the assay on BT-549 breast, 31.4 µM; with ACHN renal it was 23 µM; with HOP-92 NSCLC, 35.1 µM.
As to `C=CC12CCN(CC1)C(C(O)c1ccnc3ccc(OC)cc13)C2` (stereo not given), the GI50 with SF-539 CNS was > 100 µM; with COLO 205 colon, 94.8 µM; with NCI-H460 lung it was > 100 µM; in the assay with NCI-H23 lung, > 100 µM; in the assay with A549 NSCLC, > 100 µM; with CAKI-1 renal, > 100 µM. For the same molecule, the GI50 in the assay on HL-60(TB) leukemia is > 100 µM; in the assay with BT-549 breast, > 100 µM; with ACHN renal it was > 100 µM; in the assay with HOP-92 NSCLC, 35.2 µM. In addition, the TGI in the assay on SF-539 CNS, with COLO 205 colon, with NCI-H460 lung, in the assay with NCI-H23 lung, in the assay on A549 NSCLC and in the assay with CAKI-1 renal was > 100 µM each time. Besides, the TGI with HL-60(TB) leukemia, in the assay with BT-549 breast, in the assay with ACHN renal and in the assay on HOP-92 NSCLC was > 100 µM throughout.
On to `O=c1[nH]c(-c2cccc(F)c2)cc2cc(F)ccc12`, for which the GI50 in the assay on SF-539 CNS is 0.272 µM; in the assay with COLO 205 colon, 0.338 µM; with NCI-H460 lung, 0.389 µM; in the assay on NCI-H23 lung, 1.61 µM; in the assay on A549 NSCLC it was 0.798 µM; in the assay with CAKI-1 renal, 0.264 µM. The GI50 was 0.199 µM in the assay with HL-60(TB) leukemia, 0.737 µM in the assay with BT-549 breast, 0.771 µM in the assay with ACHN renal and > 100 µM with HOP-92 NSCLC. Moreover, the TGI in the assay with SF-539 CNS was 1.7 µM; in the assay with COLO 205 colon, > 100 µM; in the assay on NCI-H460 lung, > 100 µM; with NCI-H23 lung, > 100 µM; in the assay with A549 NSCLC it was > 100 µM; in the assay with CAKI-1 renal it was > 100 µM. For the same molecule, the TGI was 0.684 µM with HL-60(TB) leukemia, > 100 µM in the assay on BT-549 breast, > 100 µM in the assay on ACHN renal and > 100 µM with HOP-92 NSCLC.
For the molecule `O=c1cccc(C#CC#C[C@@H]2O[C@H]2CO)o1`, the GI50 with SF-539 CNS was 1.91 µM; in the assay with COLO 205 colon it was 0.201 µM; with NCI-H460 lung it was 2.03 µM; with NCI-H23 lung, 0.23 µM; in the assay on A549 NSCLC it was 2.25 µM; in the assay on CAKI-1 renal it was 1.1 µM. The GI50 was 3.12 µM in the assay on HL-60(TB) leukemia, 2 µM with BT-549 breast, 0.845 µM with ACHN renal and 1.06 µM in the assay on HOP-92 NSCLC. Also, the TGI in the assay on SF-539 CNS was 3.68 µM; in the assay with COLO 205 colon, 0.388 µM; in the assay on NCI-H460 lung, 4.63 µM; in the assay with NCI-H23 lung, 0.45 µM; in the assay on A549 NSCLC it was 4.8 µM; in the assay on CAKI-1 renal, 2.71 µM. Further, the TGI was > 100 µM in the assay on HL-60(TB) leukemia, 3.73 µM with BT-549 breast, 2.08 µM in the assay on ACHN renal and 3.34 µM in the assay with HOP-92 NSCLC.
Take `COc1ccc(-c2cc(=O)oc3c4c(ccc23)OCN(Cc2ccc(F)cc2)C4)cc1`: the GI50 in the assay with SF-539 CNS was 15.8 µM; with COLO 205 colon, 18.7 µM; with NCI-H460 lung, 15.9 µM; in the assay with NCI-H23 lung it was 20.5 µM; with A549 NSCLC, 25.6 µM; with CAKI-1 renal it was 14.7 µM. Besides, the GI50 in the assay with HL-60(TB) leukemia is 23.2 µM; in the assay with BT-549 breast, 14.6 µM; in the assay on ACHN renal, 19.4 µM; in the assay on HOP-92 NSCLC, 10 µM. For the same molecule, the TGI with SF-539 CNS is 32.5 µM; in the assay on COLO 205 colon it was 36.1 µM; with NCI-H460 lung it was 30.2 µM; in the assay on NCI-H23 lung it was 49.4 µM; with A549 NSCLC it was > 100 µM; in the assay with CAKI-1 renal, 44.3 µM. Besides, the TGI in the assay on HL-60(TB) leukemia was determined as 57.4 µM; in the assay on BT-549 breast it was 31.3 µM; with ACHN renal, 65 µM; in the assay with HOP-92 NSCLC it was 24.2 µM.
As for `NC(=O)c1cc(I)ccc1NC(=O)/C=C/c1ccccc1`, the GI50 was 0.36 µM in the assay with SF-539 CNS; 0.318 µM in the assay on COLO 205 colon; 0.417 µM in the assay on NCI-H460 lung; 1 µM in the assay on NCI-H23 lung; 1.33 µM in the assay on A549 NSCLC; 0.652 µM with CAKI-1 renal. In addition, the GI50 is 0.13 µM in the assay on HL-60(TB) leukemia, 2.39 µM in the assay on BT-549 breast, 3.15 µM in the assay on ACHN renal and 17 µM with HOP-92 NSCLC. The TGI with SF-539 CNS was 1.53 µM; with COLO 205 colon, 1.24 µM; in the assay with NCI-H460 lung, 3.44 µM; with NCI-H23 lung, > 44.9 µM; in the assay with A549 NSCLC, > 100 µM; in the assay on CAKI-1 renal, 24.8 µM. For the same molecule, the TGI with HL-60(TB) leukemia was 0.912 µM; in the assay on BT-549 breast, 27.5 µM; in the assay on ACHN renal, > 47.1 µM; with HOP-92 NSCLC, 97.7 µM.

By GI50 is commonly meant the concentration that inhibits growth by half. As usually defined, the TGI is the concentration at which net growth stops.

Source of the values: PubChem BioAssay (NCI).
